Reference: patent publication US20260166045A1, “COMBINATION THERAPY COMPRISING GSPT1-DIRECTED MOLECULAR GLUE DEGRADERS AND PI3K/AKT/mTOR PATHWAY INHIBITORS” (Monte Rosa Therapeutics, Inc., priority 2022, published 2026)

Assays:
Assay in all cases: CellTiter-Glo 2.0 cell viability, 7x7 combination dose response matrix, synergy scoring
Type in all cases: cell-based
[1] = system: MDA-MB-231 cell line; conditions: MDA-MB-231; combined with M2698 41-10000 nM; first compound 0.41-100 nM
Excerpt: (§1) A study was undertaken to determine whether the combination of a GSPT1-directed MGD and an inhibitor of the PI3K/AKT/mTOR pathway could be effective in killing cancer cells and whether certain combination could elicit a greater than additive effect on cell killing.
(§2) FIG. 1 is a flow diagram of the method used to assess cancer cell killing by a combination of a GSPT1-directed MGD and an inhibitor of the PI3K/AKT/mTOR pathway. Certain of the materials and equipment used in the studies are presented in Table 3 and the cell lines used are presented in Table 4.
(§3) All assays were run in triplicate. Each 384-well plate accommodated six 7×7 dose response matrices (FIG. 2). All compound handling was performed using an Echo 650 Series Acoustic Liquid Handler, which enables fully automated, precise, contact-free acoustic transfer in volumes as low as 2.5 nL.
(§4) The following protocol was used for cell plating: • 1. Warm media to room temperature or 37° C. • 2. Prepare complete phenol-free media by adding 10% FBS+1% Pen-Strep to RPMI 1640 Medium or DMEM. • 3. Aspirate media from T175 tissue culture flask and rinse with 10 ml PBS. • 4. Aspirate PBS and add 2 mL 0.25% trypsin. Incubate the flask at 37° C. for 5 min or until cells are detached. • 5. Add 10 mL complete media to the flask to neutralize the trypsin, then collect cells in a 50 mL conical tube. • 6. Centrifuge cells at 300 g for 5 min. Aspirate media and suspend cell pellet in fresh media. Use cell strainer to strain cells into a new 50 mL conical tube. • 7. […] Mix 100 uL cell suspension with 100 uL trypan blue (1:1) and pipette 20 μL of the mixture into each of 2 counting chambers on a slide. Insert slide. • b. Adjust focus and record the live cell count. At least 2 independent measurements should be taken. […] Cell viability should be greater than 90%. […] Dilute cell suspension to the desired concentration (20000 cells/mL) using complete phenol-free media. Prepare 10 mL cell suspension per plate+an extra 10 mL for priming the liquid handler. • 9. Dispense cells into 384-well plates using the liquid handler at 25 uL/well (500 cells/well). 3 plates should be prepared per compound plate to be treated. • 10. Cells should be dispensed into columns 1-23 only. Media only (no cells) should be dispensed into column 24. • 11. Allow plates to rest at RT for 30 minutes before transferring to the incubator. Incubate cells overnight at 37° C., 95% humidity, and 5% CO2.
(§5) Compound plates were prepared as follows using an Echo 650 Series Acoustic Liquid Handler. • 1. A compound plate containing 7-point dose responses of each compound to be treated is first prepared from stock compounds. • 2. The cell plates are treated with compounds according to the following maps, where the first compound is added across all six 7 by 7 dose response matrices, and its concentration varies by row (FIG. 2; top matrix), whereas the second compound varies for each dose response matrix, and its concentration varies by column (FIG. 2; bottom matrix). Each cell plate receives one Compound A and six different Compound Bs. • 3. To prepare a compound plate, 384-well PP plate with stock compounds (highest concentration) is prepared. Compounds are diluted 1:1000 in the cell plates, e.g. 10 mM on compound plate will be 10 uM on cell plate. A 384-well LDV plate with pre-determined volumes of DMSO is prepared. Echo is used to dilute stock compounds from PP plate into LDV plate to prepare 7-point dose responses.
(§6) Compounds were added to the cells and cell viability was measured after 72 hour incubation using CellTiter-Glo 2.0 Cell Viability Assay (Promega): • 1. For a compound addition, Echo is used to transfer 25 nL from the compound plate wells to the cell plates according to the plate maps shown in FIG. 2. Cell plates are treated in triplicate. Each well of the cell plate has 25 uL media (1:1000 dilution). Incubate cells post-treatment at 37° C., 95% humidity, and 5% CO2 for 72 hrs (step 106). • 2. […]

[2] = system: CAL51 cell line
Excerpt: as §1, §2, §3, §4, §5, §6

[3] = system: MCF7 cell line
Excerpt: as §1, §2, §3, §4, §5, §6

[4] = system: MDA-MB-157 cell line; conditions: combined with M2698 41-10000 nM, first compound 0.41-100 nM
Excerpt: as §1, §2, §3, §4, §5, §6

[5] = CAL51, combined with Alpelisib 41-10000 nM, first compound 0.41-33.33 nM
[6] = CAL51, combined with M2698 41-10000 nM, first compound 0.41-100 nM
[7] = MCF7, combined with Alpelisib 41-10000 nM, first compound 0.41-33.33 nM
[8] = MCF7, combined with M2698 41-10000 nM, first compound 0.41-100 nM

Row | Compound | Mean Bliss synergy score [1] | Mean Loewe synergy score [1] | Mean Bliss synergy score [2, 5] | Mean Loewe synergy score [2, 5] | Mean Bliss synergy score [2, 6] | Mean Loewe synergy score [2, 6] | Mean Bliss synergy score ([2]; combined with M2698 (41 nM to 10 uM), CAL51 cell line, mean across dose response matrix, 72 hrs) | Mean Bliss synergy score [3, 7] | Mean Loewe synergy score [3, 7] | Mean Bliss synergy score [3, 8] | Mean Loewe synergy score [3, 8] | Mean Bliss synergy score [4] | Mean Loewe synergy score [4] | Mean Bliss synergy score ([3]; combined with Alpelisib (41 nM to 10 uM), MCF7 cell line, mean across dose response matrix, 72 hrs)
1 | O=C1CCC(N2Cc3ccc(COC(=O)Nc4ccc(F)c(OC(F)(F)F)c4)cc3C2=O)C(=O)N1 (centres unmarked) [Compound 1-2, [2-(2,6-dioxopiperidin-3-yl)-3-oxo-2,3-dihydro-1H-isoindol-5-yl]methyl N-[4-fluoro-3-(trifluoromethoxy)phenyl]carbamate] | 1.26 | 3.82 | 13.24 | 10.04 | 20.45 | 10.06 | 20.45 | 14.93 | 11.94 | 19.15 | 12.31 | 4.58 | 5.68 | –
2 | O=C1CCC(N2Cc3ccc(COC(=O)Nc4cccc(OC(F)(F)F)c4)cc3C2=O)C(=O)N1 (centres unmarked) [Compound 1-5, [2-(2,6-dioxopiperidin-3-yl)-3-oxo-2,3-dihydro-1H-isoindol-5-yl]methyl N-[3-(trifluoromethoxy)phenyl]carbamate] | 1.74 | 3.68 | −0.17 | 7.63 | 7.95 | 11.33 | – | −2.19 | 6.06 | 5.35 | 12.24 | 2.85 | 4.08 | –
3 | O=C1CCC(N2Cc3ccc(COC(=O)Nc4ccc(F)c(OC(F)F)c4)cc3C2=O)C(=O)N1 (centres unmarked) [Compound 1-3, [2-(2,6-dioxopiperidin-3-yl)-3-oxo-2,3-dihydro-1H-isoindol-5-yl]methyl N-[3-(difluoromethoxy)-4-fluorophenyl]carbamate] | 5.67 | 4.75 | 13.63 | 8.54 | 30.29 | 15.43 | – | 17.71 | 10.32 | 25.34 | 13.77 | 6.71 | 6.57 | 17.71
